{
  "source": "patent US20150285789A1",
  "about": "“ASSAYS, SYSTEMS, AND METHODS FOR OBTAINING PERSONALIZED ANABOLIC PROFILES” (BOSTON MEDICAL CENTER CORPORATION, priority 2012, published 2015)",
  "note": "“Also recorded” adds a separate entry of the source.",
  "data": [
    {"system": "MC3T3 cells", "assay": "TGFβ1 mediated inhibition of osteoblast differentiation, qRT-PCR of Runx2, Osx and Smad 7", "assay_type": "cell-based, mouse", "conditions": "TGFβ1 added to MC3T3 cells", "protocol": "MC3T3 cells were treated with media containing 1 ng/mL of TGFβ1 for 24 h and then the media were replaced with BMP-2 or BMP-2 with 100 ng/mL rapamycin. RNA was collected 24 h afterwards and analyzed by qRT-PCR and the ΔΔCT method. […] Shown are representative results (average of duplicates) of at least three independent experiments.\nTotal RNA was extracted by the TRIzol method as recommended by the manufacturer (Invitrogen). Isolated RNA was cleaned up using the Rneasy Kit (Qiagen) and 500 ng of RNA was reverse-transcribed using the High Capacity cDNA Synthesis Kit (Applied Biosystems #4368813). Taqman expression assays were used for detection. The expression of 18S (Applied Biosystems #4319413E) was used for normalization of gene expression values. Real-time primers Runx2, Sp7 (Osx), Bglap1 (Ocn) and Smad 7 were obtained from Applied Biosystems (Mm00501580_ml, Mm00504574_ml, Mm03413826_ml and Mm00484742_ml respectively). Quantification was determined using the ΔΔCT method and normalized to the untreated sample.", "values": [
      {"compound": "TGFβ1: transforming growth factor (TGF)-β1, anti-inflammatory cytokine used as antagonist of osteoblast differentiation", "Runx2 and Osx mRNA, basal levels": "reduces basal levels"}
    ]},
    {"system": "MC3T3 cells", "assay": "TGFβ1 mediated inhibition of osteoblast differentiation, qRT-PCR of Runx2, Osx and Smad 7", "assay_type": "cell-based, mouse", "conditions": "factor alone", "values": [
      {"compound": "TGFβ1: transforming growth factor (TGF)-β1, anti-inflammatory cytokine used as antagonist of osteoblast differentiation", "Smad-7 levels": "no apparent affect"}
    ]},
    {"system": "C2C12 cells", "assay": "High-throughput screen for small molecules that augment BMP-2 induced ALP expression (osteoblast conversion)", "assay_type": "cell-based, mouse", "conditions": "DM + BMP-2 + compound at target concentration 1 μM, 72 h, duplicate; ImageJ, Digilab and visual inspection analyses", "procedure": "The level of alkaline phosphatase (ALP) activity measured colorimetrically was scored in all wells using three criteria (see Exemplary materials and methods in the Examples section). […] ALP intensity images were acquired using a Digilab Plate reader. Images were analyzed using three independent criteria and considered for secondary screening and validation in the MC3T3 pre-osteoblast cell line Enhancement of the mRNA and protein levels of the mature osteoblast markers RunX2 and osterix was tested. *Plates were run in duplicate.\nC2C12 cells were plated at 750 cells per well in a 384-square well plate and were allowed to adhere for 24 h in growth media (GM). […] After 72 h, cells were fixed and stained for alkaline phosphatase (ALP) and DAPI for nuclei visualization. […] It was next sought to screen a larger set of small molecules from more diverse backgrounds to identify enhancement of osteoblast conversion.\nCell culture: C2C12. The C2C12 myoblast cell line (ATCC) was maintained in growth medium (GM) that consisted of high glucose DMEM (Gibco), 10% fetal bovine serum (Gibco), and 1% pen/strep (Invitrogen). […] Negative controls were switched to DM but only received 20 mM acetic acid. Cells were passaged approximately every two days and were kept below 70% con-fluency, as per manufacturer's instructions. MC3T3-E1. MC3T3-E1 subclone 4 pre-osteoblast cells (ATCC #CRL-2593) were maintained in minimum essential medium, alpha modification (Invitrogen #A10490-01) containing 10% FBS and 1% penicillin/streptomycin. […] All cell lines used were maintained in a 37° C. incubator at 5% CO2.\n384-square well plates (BD) were used for primary screening. PBS was added to the outermost wells to reduce edge effects. In each plate, 40 wells were used as positive controls, 28 wells were used as negative controls, and the center 240 wells were used for compound testing. All plates were screened in duplicate. The inner 308 wells received 750 cells per well and were allowed to adhere in GM for 24 h. GM was then removed, wells were washed once with PBS, and DM was added to the inner 308 wells. Negative control wells received DM. […] DMSO was used as the vehicle for compound addition in this study. DMSO was also added to positive and negative control wells in equimolar amounts.\nCells were initially fixed with a fixative solution that consisted of a 3:10:26 ratio mixture of 37% formaldehyde: citrate: acetone. Colorimetric detection of osteoblasts was achieved using the alkaline phosphatase (ALP) kit obtained from Sigma-Aldrich (Catalog #86C). Cell number was determined based on nuclei staining with DAPI nucleic acid stain as per manufacturer's instructions (Invitrogen).\nWell images identifying ALP+ cells were acquired using a MIAS-2 plate reader, as per manufacturer's instructions (Digilab, Holliston, Mass.).\nAcquired images were assessed using three different search strategies (ImageJ software, Digilab software, and systematic scanning by eye); each having different sensitivities and specificities with regard to the assay.\nWell images were opened with the image software platform ImageJ. Images were normalized on a per plate basis and, since ALP positive cells become darker in a gray scale image, the image darkness was assessed. Images were analyzed using an Area Fraction method whereby a minimum pixel darkness threshold was applied for all image wells. All pixels that were as dark or darker than the threshold applied were converted to black. […] The binary image was then assessed to see percentage of pixels of the image that were black (i.e. Area Fraction). Average Area Fraction from duplicate compound wells was divided by average duplicate nuclei count (as measured by DAPI count in ImageJ) to get Area Fraction on a per-cell basis. This ratio (Area Fraction: Nuclei count) was then compared to positive control wells.\nWell images were analyzed using eaZYX Image Analyzer software (Digilab, Holliston, Mass.).", "values": [
      {"compound": "O=C1NC(=O)C(c2ccccc2)(c2ccccc2)N1", "note": "[phenytoin]", "enhancement of BMP-2 induced ALP expression (screen hit)": "identified in all three analyses"},
      {"compound": "Oc1ccc(C=Cc2cc(O)cc(O)c2)cc1", "note": "[resveratrol]", "enhancement of BMP-2 induced ALP expression (screen hit)": "notable hits among the top 45 compounds"},
      {"compound": "C/C(=C\\c1ccc(C(=O)O)cc1)c1ccc2c(c1)C(C)(C)CCC2(C)C", "note": "[TTNPB]", "enhancement of BMP-2 induced ALP expression (screen hit)": "identified in all three analyses"},
      {"compound": "CC[C@@H]1/C=C(\\C)C[C@H](C)C[C@H](OC)[C@H]2O[C@@](O)(C(=O)C(=O)N3CCCC[C@H]3C(=O)O[C@H](/C(C)=C/[C@@H]3CC[C@@H](O)[C@H](OC)C3)[C@H](C)[C@@H](O)CC1=O)[C@H](C)C[C@@H]2OC", "note": "[FK-520]", "enhancement of BMP-2 induced ALP expression (screen hit)": "also identified but was not among the top hits"},
      {"compound": "COc1c(C)c2c(c(O)c1C/C=C(\\C)CCC(=O)O)C(=O)OC2", "note": "[mycophenolic acid]", "enhancement of BMP-2 induced ALP expression (screen hit)": "identified in all three analyses"},
      {"compound": "CCCCC[C@H](O)/C=C/[C@H]1[C@H](O)CC(=O)[C@@H]1CCCCCCC(=O)O", "note": "[prostaglandin E1]", "enhancement of BMP-2 induced ALP expression (screen hit)": "identified in all three analyses; also recorded: enhanced ALP expression"},
      {"compound": "CCCCC[C@H](O)CC[C@H]1[C@H](O)CC(=O)[C@@H]1CCCCCCC(=O)O", "note": "[13, 14-Dihydro-prostaglandin E1]", "enhancement of BMP-2 induced ALP expression (screen hit)": "enhanced ALP expression"},
      {"compound": "COc1c(C)c2c(c(O)c1C/C=C(\\C)CCC(=O)OCCN1CCOCC1)C(=O)OC2", "note": "[mycophenolate mofetil]", "enhancement of BMP-2 induced ALP expression (screen hit)": "identified in all three analyses"},
      {"compound": "C=C(c1ccc(C(=O)O)cc1)c1cc2c(cc1C)C(C)(C)CCC2(C)C", "note": "[bexarotene]", "enhancement of BMP-2 induced ALP expression (screen hit)": "identified in all three analyses"},
      {"compound": "CC1=C(/C=C/C(C)=C/C=C/C(C)=C\\C(=O)O)C(C)(C)CCC1", "note": "[13-cis retinoic acid]", "enhancement of BMP-2 induced ALP expression (screen hit)": "identified in all three analyses"},
      {"compound": "CCCCC[C@H](O)/C=C/[C@H]1[C@H](O)CC(=O)[C@@H]1C/C=C\\CCCC(=O)O", "note": "[prostaglandin E2]", "enhancement of BMP-2 induced ALP expression (screen hit)": "enhanced ALP expression"},
      {"compound": "CCCCC[C@H](O)/C=C/C1=C(CCCCCCC(=O)O)C(=O)CC1", "note": "[prostaglandin B1]", "enhancement of BMP-2 induced ALP expression (screen hit)": "enhanced ALP expression"},
      {"compound": "CCCCCCCCCCCCCCC[C@@H](O)[C@H](CO)NC(C)=O", "note": "[C2 dihydroceramide]", "enhancement of BMP-2 induced ALP expression (screen hit)": "identified in all three analyses"},
      {"compound": "C=C[C@H]1C[N@@]2CC[C@H]1C[C@H]2[C@H](O)c1ccnc2ccc(OC)cc12", "note": "[quinine]", "enhancement of BMP-2 induced ALP expression (screen hit)": "identified in all three analyses"},
      {"compound": "COC(=O)C1=C(C)NC(C)=C(C(=O)OCCSc2ccccc2)C1C", "note": "(stereo not drawn) [PCA 4248]", "enhancement of BMP-2 induced ALP expression (screen hit)": "identified in all three analyses"},
      {"compound": "CCCCC[C@H](O)/C=C/C1=C(C/C=C\\CCCC(=O)O)C(=O)CC1", "note": "[prostaglandin B2]", "enhancement of BMP-2 induced ALP expression (screen hit)": "identified in all three analyses"}
    ]}
  ]
}
